Activity calls are given as the source filed them.
Key:
[1] = biological target: T1, RNA-binding protein pos-1 (Caenorhabditis elegans, UniProt G5EF15); assay: disruptors of C. elegans POS-1 RNA interaction – biochemical, fluorescence polarization, dose response (AID 1964);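 note: purified POS-1 fused to maltose binding protein made in E. coli; potency of compounds blocking POS-1 binding to fluorescent RNA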
T1 sequence (G5EF15 whole entry): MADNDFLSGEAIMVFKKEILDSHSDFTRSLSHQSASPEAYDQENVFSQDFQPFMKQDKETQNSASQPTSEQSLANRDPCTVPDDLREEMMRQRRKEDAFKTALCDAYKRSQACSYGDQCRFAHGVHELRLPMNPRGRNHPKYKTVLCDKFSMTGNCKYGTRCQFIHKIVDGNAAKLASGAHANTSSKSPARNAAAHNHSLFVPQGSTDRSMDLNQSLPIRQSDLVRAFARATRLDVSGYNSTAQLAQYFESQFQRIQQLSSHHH

[2] = biological target: T2, Zinc finger protein mex-5 (Caenorhabditis elegans, UniProt Q9XUB2); assay: potency of MEX-5 RNA-binding blockers – biochemical, C. elegans, fluorescence polarization, dose response (AID 1960)
T2 sequence (Q9XUB2 whole entry): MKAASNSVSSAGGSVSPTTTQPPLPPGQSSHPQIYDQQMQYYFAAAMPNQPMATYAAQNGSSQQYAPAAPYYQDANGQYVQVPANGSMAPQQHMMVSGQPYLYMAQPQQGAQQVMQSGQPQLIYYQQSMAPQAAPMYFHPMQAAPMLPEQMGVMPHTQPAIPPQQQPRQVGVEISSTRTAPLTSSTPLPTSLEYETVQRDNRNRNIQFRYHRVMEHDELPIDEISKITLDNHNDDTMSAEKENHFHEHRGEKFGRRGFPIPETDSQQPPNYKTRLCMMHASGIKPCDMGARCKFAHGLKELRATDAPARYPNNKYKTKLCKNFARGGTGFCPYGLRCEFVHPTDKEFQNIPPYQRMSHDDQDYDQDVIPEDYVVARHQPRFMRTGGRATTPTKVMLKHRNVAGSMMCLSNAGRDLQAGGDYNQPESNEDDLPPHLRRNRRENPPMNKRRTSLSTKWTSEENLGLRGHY

[3] = biological target: T3, DNA repair and recombination protein RAD54-like (Homo sapiens, UniProt Q92698); assay: RAD54 Holliday junction migration blockers – biochemical, fluorescence, cherry-picked samples, dose series, confirmation (AID 651657); format: functional
T3 sequence (Q92698 whole entry): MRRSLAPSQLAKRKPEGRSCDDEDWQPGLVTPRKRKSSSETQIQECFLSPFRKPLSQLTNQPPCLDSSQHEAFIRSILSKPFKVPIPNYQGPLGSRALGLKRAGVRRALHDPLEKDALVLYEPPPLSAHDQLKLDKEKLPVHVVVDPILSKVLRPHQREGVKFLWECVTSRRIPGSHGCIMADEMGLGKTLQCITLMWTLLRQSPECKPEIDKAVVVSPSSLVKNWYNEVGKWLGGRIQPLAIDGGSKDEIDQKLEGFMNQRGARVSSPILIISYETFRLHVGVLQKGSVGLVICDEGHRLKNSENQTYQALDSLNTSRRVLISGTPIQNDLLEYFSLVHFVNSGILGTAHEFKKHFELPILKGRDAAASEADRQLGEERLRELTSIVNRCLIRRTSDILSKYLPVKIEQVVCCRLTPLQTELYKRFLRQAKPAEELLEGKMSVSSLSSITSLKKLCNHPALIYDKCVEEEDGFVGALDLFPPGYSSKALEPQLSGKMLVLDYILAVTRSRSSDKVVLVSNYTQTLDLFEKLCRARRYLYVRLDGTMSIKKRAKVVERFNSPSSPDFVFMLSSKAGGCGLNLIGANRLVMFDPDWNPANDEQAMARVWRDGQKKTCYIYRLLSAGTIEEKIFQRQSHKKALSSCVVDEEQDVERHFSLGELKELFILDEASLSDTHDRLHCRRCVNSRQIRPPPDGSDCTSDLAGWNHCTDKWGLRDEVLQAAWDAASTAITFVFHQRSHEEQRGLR

Protein Wnt-3a = Protein Wnt-3a (Mus musculus, UniProt P27467); assay: antagonism of Wnt3a pathway luciferase reporter – Wnt-LIGHT cells, luminescence, selectivity assay for Gli-SUFU antagonist project, dose response (AID 651570); format: functional; settings: read-out: IC50_Mean;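 note: Wnt-LIGHT reporter cells stimulated with conditioned medium from Wnt3a-producing cells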
Sequence of Protein Wnt-3a (P27467 whole entry): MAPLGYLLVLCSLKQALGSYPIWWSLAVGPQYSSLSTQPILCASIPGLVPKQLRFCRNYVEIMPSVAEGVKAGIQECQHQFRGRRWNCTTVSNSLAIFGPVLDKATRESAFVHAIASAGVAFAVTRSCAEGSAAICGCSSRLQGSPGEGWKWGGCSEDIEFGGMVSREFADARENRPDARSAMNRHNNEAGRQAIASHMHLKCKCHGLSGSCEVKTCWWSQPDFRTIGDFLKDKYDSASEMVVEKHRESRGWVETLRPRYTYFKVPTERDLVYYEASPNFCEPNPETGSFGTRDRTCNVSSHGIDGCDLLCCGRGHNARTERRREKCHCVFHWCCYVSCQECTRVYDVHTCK

[4] = microbe, parasite or virus in culture; format: functional; settings: Mycobacterium tuberculosis
[5] = biological target: T4, Corticotropin-releasing factor receptor 2/Corticotropin-releasing factor-binding protein (Homo sapiens, UniProt P24387+Q13324); assay: Dose Response confirmation of uHTS hits for small molecule antagonists of the CRF-binding protein and CRF-R2 receptor complex.; format: functional; settings: read-out: IC50_Mean
T4 sequence (Q13324 whole entry): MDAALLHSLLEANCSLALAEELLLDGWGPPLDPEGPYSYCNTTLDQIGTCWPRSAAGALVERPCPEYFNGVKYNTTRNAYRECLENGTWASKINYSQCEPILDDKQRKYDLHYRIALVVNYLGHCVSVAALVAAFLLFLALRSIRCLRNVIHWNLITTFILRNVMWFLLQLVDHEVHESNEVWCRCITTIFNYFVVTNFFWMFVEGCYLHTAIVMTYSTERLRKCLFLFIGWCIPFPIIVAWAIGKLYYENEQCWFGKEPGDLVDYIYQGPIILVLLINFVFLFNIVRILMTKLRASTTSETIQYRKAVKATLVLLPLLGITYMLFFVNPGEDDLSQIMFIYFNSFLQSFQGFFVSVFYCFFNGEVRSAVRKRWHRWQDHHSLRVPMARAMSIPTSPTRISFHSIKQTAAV
T4 sequence (P24387 whole entry): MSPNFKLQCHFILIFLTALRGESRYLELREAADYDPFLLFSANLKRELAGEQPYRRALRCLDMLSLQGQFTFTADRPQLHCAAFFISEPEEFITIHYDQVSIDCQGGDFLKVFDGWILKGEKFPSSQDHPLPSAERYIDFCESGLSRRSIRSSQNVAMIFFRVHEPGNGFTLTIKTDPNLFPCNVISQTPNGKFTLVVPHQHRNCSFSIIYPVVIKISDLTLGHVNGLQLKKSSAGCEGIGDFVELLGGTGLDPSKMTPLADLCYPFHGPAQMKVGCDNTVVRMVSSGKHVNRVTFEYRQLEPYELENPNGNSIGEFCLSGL

[6] = biological target: T4, Corticotropin-releasing factor receptor 2/Corticotropin-releasing factor-binding protein; assay: activators of CRF receptor 2 with binding protein – uHTS hits, confirmation (AID 602473); format: functional; settings: read-out: EC50_Mean
[7] = blockers of CRF-binding protein–CRF-R2 complex – cell-based, uHTS hits, 384-well, dose response (AID 651639); format: functional, Homo sapiens; settings: read-out: IC50_Mean
[8] = Trypanosoma cruzi growth suppression in host cells – NIH3T3 host cells, beta-gal luminescence, confirmation (AID 2044); format: functional, cell-based;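 note: intracellular parasites grown in NIH/3T3 mouse fibroblasts as host cells; luminescent beta-galactosidase reporter signal from transgenic T. cruzi replicating inside host cells; inhibitors lower the luminescence signal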
[9] = reduction of Shn3 3'UTR-driven luciferase in osteoblasts – cell-based, Clone20 osteoblasts, firefly luciferase, cherry-picked, dose response (AID 624132); format: functional;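 note: firefly luciferase luminescence from reporter carrying the Shn3 3'UTR in osteoblasts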
[10] = loss of viability in HepG2 cells – cell-based, CellTiter-Glo, cherry-picked, cytotoxicity control for Shn3 inhibitor project, dose response (AID 624134); format: functional
[11] = non-specific 3'UTR reporter inhibition in Clone20-Shn3RL – cell-based, Renilla luciferase, cherry-picked, counter-screen for Shn3 inhibitor project, dose response (AID 624133); format: functional
[12] = biological target: Glucose-6-phosphate 1-dehydrogenase (Homo sapiens, UniProt P11413); assay: inhibition of Homo sapiens G6PD, dose series – biochemical, fluorescence, selectivity assay for P. falciparum G6PD inhibitor project, dose response (AID 504792); format: functional
Sequence of Glucose-6-phosphate 1-dehydrogenase (P11413 whole entry): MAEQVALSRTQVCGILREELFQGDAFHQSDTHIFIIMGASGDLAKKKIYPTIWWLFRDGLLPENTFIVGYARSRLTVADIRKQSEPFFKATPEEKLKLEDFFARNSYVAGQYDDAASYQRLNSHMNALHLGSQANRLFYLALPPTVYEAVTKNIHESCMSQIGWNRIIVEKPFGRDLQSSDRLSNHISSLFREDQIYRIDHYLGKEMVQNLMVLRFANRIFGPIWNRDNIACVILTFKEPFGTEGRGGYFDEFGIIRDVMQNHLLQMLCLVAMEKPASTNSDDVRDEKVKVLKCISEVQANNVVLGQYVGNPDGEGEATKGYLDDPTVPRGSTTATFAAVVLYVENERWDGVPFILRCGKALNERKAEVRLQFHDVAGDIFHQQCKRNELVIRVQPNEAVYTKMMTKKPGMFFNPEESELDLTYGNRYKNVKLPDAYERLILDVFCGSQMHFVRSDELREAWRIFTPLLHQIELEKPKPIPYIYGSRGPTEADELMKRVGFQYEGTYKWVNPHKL

[13] = biological target: T5, Endoribonuclease toxin MazF (Escherichia coli K-12, UniProt P0AE70); assay: activation of MazEF endoribonuclease cleavage – biochemical, fluorescence, single-stranded RNA substrate, uHTS hits, dose response (AID 588481); format: functional
T5 sequence (P0AE70 whole entry): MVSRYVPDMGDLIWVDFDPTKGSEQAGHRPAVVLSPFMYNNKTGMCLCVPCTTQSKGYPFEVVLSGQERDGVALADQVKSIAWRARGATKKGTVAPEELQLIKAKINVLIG

[14] = biological target: T5, Endoribonuclease toxin MazF; assay: substrate-only fluorescence increase artefacts – biochemical, single-stranded RNase substrate, counter-screen for MazEF activator project, dose response (AID 588502); format: functional
[15] = biological target: Luciferin 4-monooxygenase (Photinus pyralis, UniProt P08659); assay: inhibition of purified Photinus pyralis luciferase – biochemical, luminescence, dose response (AID 1891)
Sequence of Luciferin 4-monooxygenase (P08659 whole entry): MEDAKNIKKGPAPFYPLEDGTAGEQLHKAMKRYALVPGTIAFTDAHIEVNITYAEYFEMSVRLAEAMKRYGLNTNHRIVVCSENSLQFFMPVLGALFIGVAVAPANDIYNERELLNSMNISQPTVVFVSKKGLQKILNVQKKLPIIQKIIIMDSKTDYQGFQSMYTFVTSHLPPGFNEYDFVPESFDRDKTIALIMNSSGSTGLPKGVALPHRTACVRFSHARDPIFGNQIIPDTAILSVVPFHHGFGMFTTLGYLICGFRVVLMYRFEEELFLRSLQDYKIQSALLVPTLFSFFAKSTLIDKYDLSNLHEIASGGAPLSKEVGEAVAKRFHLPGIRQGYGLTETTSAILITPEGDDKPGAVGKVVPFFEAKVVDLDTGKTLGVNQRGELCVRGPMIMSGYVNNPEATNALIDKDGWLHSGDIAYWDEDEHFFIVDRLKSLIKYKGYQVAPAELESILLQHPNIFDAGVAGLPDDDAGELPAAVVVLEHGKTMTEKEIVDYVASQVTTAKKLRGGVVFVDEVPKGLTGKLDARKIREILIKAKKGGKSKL

[16] = Luminescence Cell-Based Dose Confirmation HTS to Identify Inhibitors of Platelet Dense Granule Release. [Related pubchem assays: 1663 (Primary HTS), 1678 (Summary of Project)]; format: functional

With `COc1ccc(CCNC(=O)c2cc3c(=O)n4cccc(C)c4nc3n(CCCN3CCOCC3)c2=N)cc1` the EC50 [1] was 66.4 µM (active), the EC50 [2] was 192 µM (active) and the AC50 [3] was 16.2 µM (active).
For `FC(F)Oc1ccc(-c2cn3c([n+]2-c2ccccc2)CCCCC3)cc1`, the IC50 (Protein Wnt-3a) was 3.83 µM (active).
For `COc1ccc(CCNc2nc(N3CCCCC3)nc(N3CCCCC3)n2)cc1OC`, the CC50 [4] was > 40 µM (active), the IC50 [5] was 7.8 µM (active) and the EC50 [6] was > 53 µM (inactive). The IC50 [7] was > 20 µM (inactive).
For `CC(=O)Nc1ccc(S(=O)(=O)N(Cc2ccccc2)C(C)C)cc1`, the IC50 (Protein Wnt-3a) was 22.1 µM (inactive).
For `Cc1nn(-c2cccc(Cl)c2)c2nc(C(F)(F)F)nc(O)c12`, the IC50 [7] was 17.8 µM (active).
In the case of `O=C(c1cc2nc(-c3ccc(F)cc3)cc(C(F)(F)F)n2n1)N1CCCCC1c1cccnc1` (stereo unspecified), the EC50 [8] is reported as 0.164 µM (active), the CC50 [4] is reported as > 40 µM (active) and the AC50 [9] is reported as 2.37 µM (active). For the same compound, the AC50 [10] was 5.1 µM (active), the AC50 [11] was 2.12 µM (active) and the IC50 (Protein Wnt-3a) was 3.57 µM (active).
In the case of `O=c1[nH]nc(CNc2ccc(O)cc2)c2ccccc12`, the EC50 [1] is reported as 11.8 µM (active), the EC50 [2] is reported as 15.3 µM (inconclusive) and the IC50 [12] is reported as > 80 µM (inactive). The EC50 [13] was > 99 µM (inactive) and the EC50 [14] was > 99 µM (inactive).
In the case of `O=C(N=CNOCc1ccc(Cl)cc1Cl)NOCc1c(Cl)cccc1Cl`, the EC50 [15] is reported as > 112 µM (not active), the EC50 [16] is reported as > 112 µM (not active) and the EC50 [13] is reported as > 99 µM (inactive). The EC50 [14] was > 99 µM (inactive).
For `CN1CCN(CCNC(=O)c2cc3c(=O)n(C)c4ccccc4c3n2C)CC1`, the AC50 [3] was 35.3 µM (active).

Reference: ChEMBL document CHEMBL1201862, “PubChem BioAssay data set” (2004)
